Results: patent US6949522B2, “β-2′- or 3′-halonucleosides” (Pharmasset, Inc., priority 2001, dated 2005)
Read-outs that look alike come from different tables or passages of the source.

Legend:
[1] = tested on: HIV-1LAI; test: HIV assay in human PBM cells (RT activity of supernatant); assay type: cell-based; details: 5 days, read-out: Anti-HIV-1 Activity (EC50)
Source text: (§1) Human peripheral blood mononuclear (PBM) cells (obtained from Atlanta Red Cross) were isolated by Ficoll-Hypaque discontinuous gradient centrifugation from healthy seronegative donors. Cells were stimulated with phytohemagglutinin A (Difco, Sparks, Md.) for 2-3 days prior to use. HIV-1LAI obtained from the Centers for Disease Control and Prevention (Atlanta, Ga.) was used as the standard reference virus for the antiviral assays. The molecular infetious clones HIV-1xxBru and HIV-1M184Vpin were obtained from Dr. John Mellors (University of Pittsburgh). Infections were done in bulk for one hour, either with 100 TCID50/1×10^7 cells for a flask (T25) assay or with 200 TCID50/6×10^5 cells/well for a 24 well plate assay. Cells were added to a plate or flask containing a ten-fold serial dilution of the test compound. Assay medium was RPMI-1640 supplemented with heat inactivated 16% fetal bovine serum, 1.6 mM L-glutamine, 80 IU/ml penicillin, 80 μg/ml streptomycin, 0.0008% DEAE-Dextran, 0.045% sodium bicarbonate, and 26 IU/ml recombinant interleukin-2 (Chiron Corp, Emeryville, Calif.). AZT was used as a positive control for the assay. Untreated and uninfected PBM cells were grown in parallel at equivalent cell concentrations as controls. The cell cultures were maintained in a humidified 5% CO2-air at 37° C. for 5 days and supernatants were collected for reverse transcriptase (RT) activity.
(§2) Supernatants were centrifuged at 12,000 rpm for 2 hours to pellet the virus. The pellet was solubilized with vortexing in 100 μl virus solubilization buffer (VSB) containing 0.5% Triton X-100, 0.8 M NaCl, 0.5 mM phenylmethylsulfonyl fluoride, 20% glycerol, and 0.05 M Tris, pH 7.8. Ten μL of each sample were added to 75 μL RT reaction mixture (0.06 M Tris, pH 7.8, 0.012 M MgCl2, 0.006 M dithiothreitol, 0.006 mg/ml poly (rA)n, oligo (dT)12-18, 96 μg/ml dATP, and 1 μM of 0.08 mCi/ml ^3H-thymidine triphosphate (Moravek Biochemicals, Brea, Calif.) and incubated at 37° C. for 2 hours. The reaction was stopped by the addition of 100 μL 10% trichloroacetic acid containing 0.05% sodium pyrophosphate. The acid insoluble product was harvested onto filter paper using a Packard Harvester (Meriden, Conn.), and the RT activity was read on a Packard Direct Beta Counter (Meriden, Conn.). The RT results were expressed in counts per minute (CPM) per milliliter.

[2] = tested on: CEM (T-lymphoblastoid cell line); assay type: cell-based
Protocol: (§3) The compounds were evaluated for their potential toxic effects on uninfected PHA-stimulated human PBM cells, in CEM (T-lymphoblastoid cell line obtained from American Type Culture Collection, Rockville, Md.) and Vero (African green monkey kidney) cells. PBM cells were obtained from whole blood of healthy seronegative donors (HIV-1 and hepatitis B virus) by single-step Ficoll-Hypaque discontinous gradient centrifugation. Log phase Vero, CEM and PHA-stimulated human PBM cells were seeded at a density of 5×10^3, 2.5×10^3 and 5×10^4 cells/well respectively. All of the cells were plated in 96-well cell culture plates containing ten-fold serial dilutions of the test drug. The cultures were incubated for 3, 4 and 5 days for Vero, CEM, and PBM cells, respectively in a humidified 5% CO2-air at 37° C. At the end of incubation, MTT tetrazolium dye solution (Cell titer 96®, Promega, Madison, Wis.) was added to each well and incubated overnight. The reaction was stopped with stop solubilization solution (Promega, Madison, Wis.). The plates were incubated for 5 hours to ensure that the formazan crystals were dissolved. The plates were read at a wavelength of 570 nm using an ELISA plate reader (Bio-tek instruments, Inc., Winooski, Vt., Model # EL 312e). […] Bookmark not defined.

[3] = tested on: HIV-1M184V; test: Antiviral activity against lamivudine-resistant (HIV-1M184V) mutant strain in human PBM cells; assay type: cell-based; details: for EC90: read-out: M184V (EC90)
Source text: as §1, with “AZT was used as a positive control for the assay.” left out
as §2
A single mutation at residue 184 (M184V) in the catalytic domain of HIV-1 RT bring about a high-level of resistance to 3TC, causing the 50% inhibitory concentration of 3TC to be increased at least 1,000-fold (Schinazi, R. F.; Lloyd, Jr. R. M.; Nguyen, M. -H.; Cannon, D. L.; McMillan, A.; Ilksoy, N.; Chu, C. K.; Liotta, D. C.; Bazni, H. Z.; Mellors, J. W. Characterizatin of human immunodeficiency viruses resistant to oxthiolane-cytosine nucleosides. Antimicrob Agents Chemother. 1993, 37, 875-881; Tisdale, M.; Kemp, S. D.; Parry, N. R.; Larder, B. A. Rapid in vitro selection of human immunodeficiency virus type 1 resistant to 3′-thiacytidine inhibitors due to a mutation in the YMDD region of reverse transcnptase. Proc. Natl. Acad. Sci. USA 1993, 90, 5653-5656), contributing to the failure of anti-AIDS combination therapy. […] K. Synthesis and anti-HIV and anti-HBV activities of 2′-fluoro-2′,3′-unsaturated L-nucleosides.

[4] = tested on: HIV-1xxBRU; test: Antiviral activity in human PBM cells, HIV-1xxBRU; assay type: cell-based; details: read-out: xxBRU (EC90)
Source text: as §1, with “AZT was used as a positive control for the assay.” left out
as §2, with “milliliter. […]” for “milliliter.”

[5] = tested on: human PBM cells; test: Toxicity assay (MTS/MTT dye), human PBM cells; details: read-out: Cytotoxicity PBM IC50; human PBM cells, 5 days incubation
Protocol: After a three day-incubation for HepG2, or 5 days for human PBM cells, cell viability and mitochondrial activity were measured in a colorimetric assay using the MTS- or MTT dye method (Promega, Madison, Wis.).

[6] = tested on: Vero (African green monkey kidney) cells; test: in vitro; assay type: cell-based
Protocol: as §3

[7] = Human immunodeficiency virus 1, PBMC

| SMILES | EC50 ([1]; Human immunodeficiency virus 1, PBMC, 120 h) [nM] | IC50 ([2]; human, 4 days) [µM] | EC90 [3, 7] [µM] | EC90 [4, 7] [nM] | FI, fold increase (EC90 HIV-1M184V/EC90 HIV-1xxBRU) ([3]; human PBM cells) | IC50 [5] [µM] | IC50 [6] [µM] | EC50 [1] [nM] | IC50 [2] [µM] | EC90 ([3]; human PBM cells) [µM] | EC90 ([4]; human PBM cells) [nM] |
| --- | --- | --- | --- | --- | --- | --- | --- | --- | --- | --- | --- |
| Cc1cn([C@H]2C[C@H](N=[N+]=[N-])[C@@H](CO)O2)c(=O)[nH]c1=O [AZT, 3′-azido-3′-deoxythymidine, reference compound] | 4 | 29 | 0.003 | 10 | – | – | – | – | – | – | – |
| Nc1ccn([C@@H]2CS[C@H](CO)O2)c(=O)n1 [Compound 3TC, (−)-β-2′,3′-dideoxy-3′-thiacytidine, reference compound] | – | – | 535 | 80 | 6,688 | – | – | – | – | – | – |
| Nc1ccn([C@@H]2C=C(F)[C@H](CO)O2)c(=O)n1 [Compound 23, 1-(2,3-Didcoxy-3-fluoro-β-L-glycero-pent-2-eno-furanosyl)cytosine] | – | – | – | – | – | 87 | – | – | – | – | – |
| Nc1ccn([C@@H]2S[C@H](CO)C=C2F)c(=O)n1 [Compound D-17, (−)-1-[(1S,4R)-2,3-dideoxy-2,3-didehydro-2-fluoro4-thio-β-D-ribofuranosyl]-cytosine] | – | – | – | – | 25 | > 100 | > 100 | 1300 | > 100 | ~125 | 5000 |
| Nc1nc(=O)n([C@@H]2S[C@H](CO)C=C2F)cc1F [Compound D-18, (−)-1-[(1S,4R)-2,3-dideoxy-2,3-didehydro-2-fluoro-4-thio-β-D-ribofuranosyl]-5-fluorocytosine] | – | – | – | – | – | > 100 | > 100 | 11600 | > 100 | – | – |
| Nc1ccn([C@H]2S[C@@H](CO)C=C2F)c(=O)n1 [Compound L-17, (+)-1-[(1S,4R)-2,3-dideoxy-2,3-didehydro-2-fluoro-4-thio-β-L-ribofuranosyl]-cytosine] | – | – | – | – | >100 | > 100 | > 100 | – | > 100 | > 100 | 1400 |
| Nc1nc(=O)n([C@H]2S[C@@H](CO)C=C2F)cc1F [Compound L-18, (+)-1-[(1S,4R)-2,3-dideoxy-2,3-didehydro-2-fluoro-4-thio-β-L-ribofuranosyl]-5-fluoro-cytosine] | – | – | – | – | – | > 100 | > 100 | 150 | > 100 | – | – |
